Key:
CIA mouse = assay: Suppression of arthritis development in CIA (active immunization); format: in vivo; conditions: DBA1/J mice, oral dosing once daily, read-out: Arthritis Model Approx ED50, Active Immunization (CIA mouse)
Description: Suppression of arthritis development in CIA. DBA1/J mice were immunized with bCII/CFA at day 0 then boosted at day 21 with bCII/IFA. Arthritis development was monitored over the course of study. The arthritis score is as follows: 0=normal paw, score of 1=1-2 digit inflamed paws; score of 2=3 digits or 1-2 digit+wrist or ankle inflamed, score of 3=hand+more than 2 digits inflamed; and score of 4=multiple digits (3-4)+important wrist or ankle inflammation.
(A) Partial therapeutic evaluation of compounds. Active compound was given by oral dosing once daily at the dose indicated from day 20 after induction of antibodies to collagen II but before disease development. (B) Full therapeutic evaluation of compound. Active compound was given after disease was developed (from day 7 after the second immunization). (C) X-ray analysis of mouse paws from full therapeutic CIA study. X-ray score is the index of measurement of combination of osteopenia, bone erosion and new bone formation. (D) Representative X-ray radiographs.

CAIA mouse = assay: Suppression of arthritis development in CAIA (passive immunization); format: in vivo; conditions: BALB/c mice, once daily PO day 0 to day 7
Method: Suppression of arthritis development in CAIA. BALB/c mice were injected i.v. with 1 mg of anti-type II collagen antibody at day 0, and 3 days later 25 μg of LPS was injected i.p. with active compound and methotrexate (MTX) was given once daily PO from day 0 to day 7. Arthritis score and body weight was monitored over the course of study.

SMILES | ED50 (CIA mouse) [mg/kg] | ED50 (CAIA mouse; Mus musculus, read-out: Arthritis Model Approx ED50, Passive Immunization (CAIA mouse)) [mg/kg] | activity in the CAIA model (arthritis score) (CAIA mouse)
CCN1C(=O)N2Cc3cc(OC)cc(OC)c3[C@@H](C)C=C2C12CCN(Cc1cc(C)cc(C)c1)CC2 [ER-819762-01] | ~3 | 30 to 60 | –
CN(Cc1cnc2nc(N)nc(N)c2n1)c1ccc(C(=O)N[C@@H](CCC(=O)O)C(=O)O)cc1 [methotrexate, reference compound] | – | – | not particularly active
CCN1C(=O)N2Cc3cc(OC)cc(OC)c3[C@@H](C)C=C2C12CCN(Cc1cc(C)nn1C)CC2 [ER-819973-01] | 3 to 10 | – | –
CCN1C(=O)N2Cc3cc(OC)cc(OC)c3[C@@H](C)C=C2C12CCN(Cc1cccn1C)CC2 [ER-819924-01] | 3 to 10 | – | –
